We go through 43 compounds from PubChem BioAssay (NCI).

This assay concerns MDA-MB-468 breast. In words: NCI anticancer screen, dose series, 48 h.

Where “and” joins values, the source holds several entries; their conditions need not be identical. Equal values may be shown once.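 The compound was tested at five concentrations on cells cultured in 96-well plates, with a 48-hour exposure period. At the GI50, growth is halved. Definition used: TGI = concentration required for complete inhibition of growth.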 Where a SMILES comes first, the peptide text is derived from it. Bridges are numbered along the chain shown (N, C = ends). [ ]: non-standard residue; d: D form. ξ: configuration not given here. ξThr(3R) = C[C@@H](O)C(N)C(=O)O; S5 = C=CCCC[C@](C)(N)C(=O)O

For the compound `CC(C)(C)NC(=O)[C@H]1CC[C@H]2[C@@H]3CC[C@H]4NC(=O)C=C[C@]4(C)[C@H]3CC[C@]12C`, the GI50 is 63 µM and > 100 µM; the TGI is more than 100 µM. Take `O=c1c2ccccc2nc(-c2ccccc2Cl)n1-c1nnc(C(F)(F)F)s1`: the GI50 was 2.29 µM and the TGI came to 7.81 µM.

For `OCc1ccc(N2CCc3cc(F)ccc3C2)cc1Cl`, the GI50 was 0.0101 µM and the TGI was less than 0.0182 µM. For the compound `CCOC(=O)c1c(NC(=O)c2ccccc2)sc2c3c(ccc12)OCN(C)C3`, the GI50 is 1.52 µM and the TGI was 3.14 µM. Consider `COc1cc(/C=C/C(=O)N2CCC=CC2=O)cc(OC)c1OC`, for which the GI50 is 1.73 µM and the TGI turned out to be 4.7 µM. `COc1ccc(-c2[nH]nc(N)c2-c2cc(OC)c3c(c2)OCO3)cc1`: the GI50 is 1.86 µM and the TGI worked out at 6.28 µM. Taken in the same sequence, the figures for `CCOC(=O)/C(C#N)=C1\SS/C(=C(/C#N)C(=O)OCC)S1` were 15.6 µM and 33 µM. In the case of `C[C@@H](NC(=O)c1ncnc(N)c1Cl)c1ncc(C(=O)Nc2cc(C(F)(F)F)c(Cl)cn2)s1`, the GI50 is 19.1 µM and the TGI turned out to be 52.5 µM. As to `COc1ccc2nc3cc([N+](=O)[O-])ccc3c(NNc3ccccc3)c2c1`, the GI50 is 0.616 µM and the TGI worked out at 5.37 µM. For the compound `CN1CCN(c2ccc(NC(=O)c3cncnc3Nc3ccc(OCc4cccc(F)c4)c(Cl)c3)cc2)CC1`, the GI50 was 1.71 µM and the TGI turned out to be 8.75 µM. Regarding `COc1cccc(C2=C(c3cn(C)c4cc(F)ccc34)C(=O)NC2=O)c1`, the GI50 was 13.5 µM and the TGI was more than 25 µM.

On to `Cc1nc(-c2cnc(NC(C)C)n(C)c2=O)ccc1Oc1ccnc(-c2cnn(C)c2)c1`, for which the GI50 was 3.01 µM and the TGI amounted to 73.9 µM. For the compound `COc1ccccc1/C=C/C1=C(C)CCC(c2ccccc2OC)C1C` (stereo not given), the GI50 is 0.118 µM and the TGI was more than 100 µM.

Turning to `Cc1ccc(-c2nc(N3CCNCC3)c3oc(-c4ccccc4)nc3n2)cc1`, the GI50 was 1.81 µM and the TGI worked out at 3.8 µM. Taken in the same sequence, the figures for `CCOc1ccc2c(c1)CN(Cc1ccc(Cl)cc1)CO2` were 16.3 µM and 34.9 µM. `CCCCCCCCCCCCCCCCCCOc1ccccc1CC(=O)OCC[N+](CC)(CC)CC`: the GI50 is 0.904 µM and the TGI is 2.15 µM.

For `CC(c1ccccc1)[C@@H](C(=O)Nc1ccc(I)cc1F)N1C(=O)N[C@H](c2ccc(OC[C@H](O)CO)cc2)C1=O` (stereo not given in full), the GI50 was 11.5 µM and the TGI is more than 25 µM. For `Nc1nnnc2nc[nH]c12`, the GI50 is 0.369 µM.

Turning to `COc1ccc(Cn2cc3c(c2)-c2oncc2CC3)cc1OC`, the GI50 was 0.0854 µM and the TGI turned out to be 0.254 µM. `Clc1ccc(Nc2nc(Nc3ccccc3)nc(Nc3ccc(-c4cc(-c5ccc(Cl)cc5)on4)cc3)n2)cc1`: the GI50 is 26 µM and the TGI is more than 100 µM. The matching figures for `Cc1ccc(Cl)cc1NC(=O)c1cc2ccccc2cc1O`: 1.31 µM and 7.25 µM. Take `CCN(CC)c1ccc2nc3c4ccccc4c(=O)cc-3n(-c3ccccc3)c2c1`: the GI50 was 0.333 µM and the TGI turned out to be 1.98 µM. Taken in the same sequence, the figures for `C=C1C(=O)O[C@H]2[C@H]1CC/C(Cn1cc(-c3cccc(Cl)c3)nn1)=C\CC[C@@]1(C)O[C@@H]21` were 0.569 µM and 2.14 µM. On to `COc1cc(/C=C/C(=O)/C=C/c2cc3ccc(Cl)cc3n(Cc3ccccc3)c2=O)ccc1O`, for which the GI50 is 1.65 µM and the TGI was 5.2 µM. On to `NC(=O)CC1(O)C=C(Br)C(=O)C(Br)=C1`, for which the GI50 is 1.75 µM and the TGI turned out to be 7.22 µM. On to `O=C(Nc1ccc(-n2ccc3c(NC(=O)c4ccccc4)nccc32)cc1)Nc1cccc(C(F)(F)F)c1`, for which the GI50 was 2.47 µM and the TGI is 10.5 µM.

Regarding `O=C(Nc1cccc(-n2cc(-c3ccncc3)c(-c3ccc(O)c(Cl)c3)n2)c1)c1cc(C(F)(F)F)cc(C(F)(F)F)c1`, the GI50 is 3.8 µM and the TGI was found to be 46 µM. With `NC1=NC(=O)/C(=C/c2ccc3ncccc3c2)S1`, the GI50 is more than 17.1 µM and the TGI was more than 25 µM.

For `Clc1ccc2ncc(-c3cccc(NC4CNC4)n3)n2c1`, the GI50 is 4.86 µM and the TGI was determined as 20.5 µM. On to `CC(=O)N[C@H](C(=O)N[C@@H](CCCNC(=N)N)C(=O)N[C@@H](CCCCN)C(=O)N[C@@H](CCCNC(=N)N)C(=O)NC(C(=O)N[C@@H](CC(C)C)C(=O)N[C@@H](CCCNC(=N)N)C(=O)N[C@@]1(C)CCC/C=C\CCC[C@@](C)(C(=O)N[C@@H](CCCNC(=N)N)C(=O)N[C@@H](CCC(=O)O)C(=O)N[C@@H](CC(C)C)C(=O)N[C@H](C(=O)N[C@@H](CCC(=O)O)C(N)=O)C(C)C)NC(=O)[C@H](CCC(N)=O)NC(=O)[C@H](CC(C)C)NC(=O)[C@H](CC(C)C)NC1=O)[C@@H](C)O)C(C)C` (stereo partly drawn) (Ac-VRKR[ξThr(3R)]LR[S5]LLQ[S5]RELVE-NH2; staple (Z) 8-12), for which the GI50 is 7.65 µM and the TGI was 18.4 µM. The matching figures for `NC(Cc1c[nH]c2ccc(F)cc12)C(=O)O` (stereo not given): 649 µM and more than 2500 µM. With `COc1ccc(C(=O)O[C@H]2[C@H](O[C@H]3[C@@H](O)COC(O[C@H]4C[C@H]5[C@@H]6CC=C7C[C@@H](O)CC[C@]7(C)[C@H]6CC[C@]5(C)[C@H]4[C@H](C)C(=O)CCC(C)C)[C@@H]3OC(C)=O)OC[C@@H](O)[C@@H]2O)c(C)c1` (stereo not given in full), the GI50 is 0.0104 µM and the TGI was determined as 4.89 µM. Consider `Nc1cc(C(F)(F)F)c(-c2cc(N3CCOCC3)nc(N3CCOCC3)n2)cn1`, for which the GI50 was 0.329 µM and 0.216 µM; the TGI is 2.5 µM and 1.41 µM.

In the case of `CC[C@]1(O)CC2CN(CCc3c([nH]c4ccccc34)[C@@](C(=O)OC)(c3cc4c(cc3OC)N(C=O)[C@H]3[C@@](O)(C(=O)OC)[C@H](OC(C)=O)[C@]5(CC)C=CCN6CC[C@]43[C@@H]65)C2)C1` (stereo not given in full), the GI50 is less than 0.005 µM and the TGI is more than 28.5 µM.

In the case of `O=C1c2cccnc2C(=O)c2c1c(C(=O)NCCn1ccnc1)c1ccccn21`, the GI50 is 2.34 µM and the TGI turned out to be 5.61 µM.

With `O=C1c2ccccc2C(=O)c2c1ccc1c(=O)n(-c3ccccc3C(F)(F)F)nnc21`, the GI50 is 1.43 µM and the TGI stood at 3.71 µM. The matching figures for `Cc1ccc(/C=C/c2c(C(=O)/C=C/c3ccc(Cl)cc3)c(C)nc3ccccc23)cc1`: 2.01 µM and 3.82 µM. Turning to `c1ccc(-c2n(Cc3ccc4ccccc4c3)cc[n+]2Cc2ccc3ccccc3c2)cc1`, the GI50 was 0.245 µM and the TGI was 1.18 µM.

As to `COc1ccc(-c2nn(-c3ccc(NC(=O)c4cc(Cl)cc(Cl)c4)cc3)cc2-c2ccncc2)cc1Cl`, the GI50 is 7.06 µM and the TGI is more than 100 µM. For the compound `COc1ccc(Cl)cc1Nc1nc(C(F)(F)F)ccc1C(=O)N/N=C/c1cccnc1`, the GI50 was 0.797 µM and the TGI was 4.66 µM. For `O=C(Cc1csc2nc(-c3ccc(Cl)cc3)cn12)N/N=C/c1ccccc1O`, the GI50 was 1.57 µM and the TGI was determined as 4.92 µM. Taken in the same sequence, the figures for `Cc1ccc(NC(=O)Nc2c(Cl)cccc2Cl)cn1` were 3.12 µM and 12.5 µM.

On to `CCN(CC)CCC(CNc1ccnc2cc(Cl)ccc12)c1ccccc1` (stereo not given), for which the GI50 was 2.16 µM and the TGI turned out to be 5.69 µM.
